# From patent US8946426B2, “Substituted bicyclic heterocyclic compounds as gamma secretase modulators” (Janssen Pharmaceuticals, Inc., priority 2009, dated 2015)
# Key:
# Assay type in all cases: cell-based
# Aβtotal [1] = assay: Method 2: Aβtotal Alphalisa in supernatant of SKNBE2 cells carrying APP 695-wild type (Table 7c); conditions: Method 2, Alphalisa, overnight incubation
# Method: (§1) Screening was carried out using SKNBE2 cells carrying the APP 695-wild type, grown in Dulbecco's Modified Eagle's Medium/Nutrient mixture F-12 (DMEM/NUT-mix F-12) (HAM) provided by Invitrogen (cat no. 10371-029) containing 5% Serum/Fe supplemented with 1% non-essential amino acids, 1-glutamine 2 mM, Hepes 15 mM, penicillin 50 U/ml (units/ml) en streptomycin 50 μg/ml. Cells were grown to near confluency.
# (§2) The screening was performed using a modification of the assay as described in Citron et al (1997) Nature Medicine 3: 67. Briefly, cells were plated in a 384-well plate at 10^4 cells/well in Ultraculture (Lonza, BE12-725F) supplemented with 1% glutamine (Invitrogen, 25030-024), 1% non-essential amino acid (NEAA), penicillin 50 U/ml en streptomycin 50 μg/ml in the presence of test compound at different test concentrations. The cell/compound mixture was incubated overnight at 37° C., 5% CO2. The next day the media were assayed by two sandwich immuno-assays, for Aβ42 and Aβtotal.
# (§3) Aβtotal and Aβ42 concentrations were quantified in the cell supernatant using the Aphalisa technology (Perkin Elmer). Alphalisa is a sandwich assay using biotinylated antibody attached to streptavidin coated donorbeads and antibody conjugated to acceptor beads. In the presence of antigen, the beads come into close proximity. The excitation of the donor beads provokes the release of singlet oxygen molecules that trigger a cascade of energy transfer in the acceptor beads, resulting in light emission. To quantify the amount of Aβ42 in the cell supernatant, monoclonal antibody specific to the C-terminus of Aβ42 (JRF/cAβ42/26) was coupled to the receptor beads and biotinylated antibody specific to the N-terminus of Aβ (JRF/AβN/25) was used to react with the donor beads. To quantify the amount of Aβtotal in the cell supernatant, monoclonal antibody specific to the N-terminus of Aβ (JRF/AβN/25) was coupled to the receptor beads and biotinylated antibody specific to the mid region of Aβ (biotinylated 4G8) was used to react with the donor beads.
# (§4) To obtain the values reported in Table 7c, the data were calculated as percentage of the maximum amount of amyloid Beta 42 measured in the absence of the test compound. The sigmoidal dose response curves were analyzed using non-linear regression analysis with percentage of the control plotted against the log concentration of the compound. A 4-parameter equation was used to determine the IC50.
# Aβ42 [2] = assay: Method 2: Aβ42 Alphalisa in supernatant of SKNBE2 cells carrying APP 695-wild type (Table 7c); conditions: Method 2, Alphalisa, overnight incubation
# Method: as §1, §2, §3, §4
# Aβ42 [3] = assay: Method 1: Aβ42 sandwich ELISA in supernatant of SKNBE2 cells carrying APP 695-wild type (Tables 7a, 7b)
# Method: as §1, with “Gibco” for “Invitrogen”, “31330-38)” for “10371-029)”, “acids.” for “acids, 1-glutamine 2 mM, Hepes 15 mM, penicillin 50 U/ml (units/ml) en streptomycin 50 μg/ml.”
# (§5) The screening was performed using the assay as described in Citron et al (1997) Nature Medicine 3: 67. Briefly, cells were plated in a 96-well plate at about 10^5 cells/ml one day prior to addition of compounds. Compounds were added to the cells in Ultraculture (Lonza, BE12-725F) supplemented with 1% glutamine (Invitrogen, 25030-024) for 18 Hours. The media were assayed by two sandwich ELISAs, for Aβ42 and Aβtotal. Toxicity of the compounds was assayed by WST-1 cell proliferation reagent (Roche, 1 644 807) according to the manufacturer's protocol.
# To quantify the amount of Aβ42 in the cell supernatant, commercially available Enzyme-Linked-Immunosorbent-Assay (ELISA) kits were used (Innotest® β-Amyloid(1-42), Innogenetics N.V., Ghent, Belgium). The Aβ42 ELISA was performed essentially according to the manufacturer's protocol. Briefly, the standards (dilutions of synthetic Aβ1-42) were prepared in polypropylene Eppendorf with final concentrations of 8000 down to 3.9 pg/ml (½ dilution step). Samples, standards and blanks (100 μl) were added to the anti-Aβ42-coated plate supplied with the kit (the capture antibody selectively recognizes the C-terminal end of the antigen). The plate was allowed to incubate 3 H at 25° C. in order to allow formation of the antibody-amyloid complex. Following this incubation and subsequent wash steps a selective anti-Aβ-antibody conjugate (biotinylated 3D6) was added and incubated for a minimum of 1 Hour in order to allow formation of the antibody-Amyloid-antibody-complex. After incubation and appropriate wash steps, a Streptavidine-Peroxidase-Conjugate was added, followed 30 minutes later by an addition of 3,3′,5,5′-tetramethylbenzidine (TMB)/peroxide mixture, resulting in the conversion of the substrate into a coloured product. This reaction was stopped by the addition of sulfuric acid (0.9 N) and the colour intensity was measured by means of photometry with an ELISA-reader with a 450 nm filter.
# (§6) To obtain the values reported in Table 7a, the sigmoidal dose response curves were analysed by computerised curve-fitting, with percent of inhibition plotted against compound concentration. A 4-parameter equation (model 205) in XLfit was used to determine the IC50. The top and the bottom of the curve were fixed to 100 and 0, respectively, and the hill slope was fixed to 1. The IC50 represents the concentration of a compound that is required for inhibiting a biological effect by 50% (Here, it is the concentration where Aβ peptide level is reduced by 50%).
# as §4, with “7b,” for “7c,”, “IC50. The values reported in Table 7b are averaged IC50 values.” for “IC50.”
# Aβtotal [4] = assay: Method 1: Aβtotal sandwich ELISA in supernatant of SKNBE2 cells carrying APP 695-wild type (Tables 7a, 7b)
# Method: as §1, with “Gibco” for “Invitrogen”, “31330-38)” for “10371-029)”, “acids.” for “acids, 1-glutamine 2 mM, Hepes 15 mM, penicillin 50 U/ml (units/ml) en streptomycin 50 μg/ml.”
# as §5
# To quantify the amount of Aβtotal in the cell supernatant, samples and standards were added to a 6E10-coated plate. The plate was allowed to incubate overnight at 4° C. in order to allow formation of the antibody-amyloid complex. Following this incubation and subsequent wash steps a selective anti-Aβ-antibody conjugate (biotinylated 4G8) was added and incubated for a minimum of 1 Hour in order to allow formation of the antibody-Amyloid-antibody-complex. After incubation and appropriate wash steps, a Streptavidine-Peroxidase-Conjugate was added, followed 30 minutes later by an addition of Quanta Blu fluorogenic peroxidase substrate according to the manufacturer's instructions (Pierce Corp., Rockford, Ill.).
# as §6
# as §4, with “7b,” for “7c,”, “IC50. The values reported in Table 7b are averaged IC50 values.” for “IC50.”
# [5] = Table 7b, averaged IC50, non-linear regression of percentage of control vs log concentration, 4-parameter equation
# [6] = Table 7a, SKNBE2 cells, compounds 18 h, XLfit 4-parameter fit of percent inhibition, top/bottom fixed to 100/0, hill slope 1
# [7] = Homo sapiens, SKNBE2, Table 7b, averaged IC50, non-linear regression of percentage of control vs log concentration, 4-parameter equation
IC50 (Aβtotal [1]),IC50 (Aβ42 [2]),IC50 (Aβ42 [3]; [5]),IC50 (Aβtotal [4]; [5]),SMILES,also measured
> 10000 nM,347 nM,–,–,Cc1cc(-c2ccc(Nc3cccc4c3nc(-c3ccc(F)cc3)n4C)nn2)ccn1 [Compound 135],–
> 10000 nM,1860 nM,–,–,COc1cc(Nc2nccn3cc(C)nc23)ccc1-c1ocnc1C [Compound 158],–
8710 nM,83 nM,–,–,Cc1cc(-c2ccc(Nc3cccn4c(C)c(-c5ccccc5Cl)nc34)cc2)ccn1 [Compound 183],–
7080 nM,49 nM,–,–,Cc1cc(-c2ccc(Nc3cccc4c3nc(-c3ccc(F)cc3)n4C)cc2)ccn1 [Compound 138],–
> 10000 nM,28 nM,–,–,Cc1cc(-c2ccc(Nc3cccc4c3nc(-c3ccc(F)cc3)n4C(C)C)cc2)ccn1 [Compound 131],–
> 10000 nM,117 nM,–,–,Cc1cc(-c2ccc(Nc3cccc4c3nc(-c3ccc(F)cc3)n4C(C)C)cc2F)ccn1 [Compound 137],–
–,468 nM,85 nM,–,COc1cc(Nc2cc(F)cn3cc(-c4ccc(F)cc4C)nc23)ccc1-c1ocnc1C [Compound 147],–
> 10000 nM,269 nM,–,–,COc1cc(Nc2cc(Cl)cn3cc(C4CCOCC4)nc23)ccc1-c1ocnc1C [Compound 159],–
> 10000 nM,30 nM,–,–,COc1nc(Nc2cccc3c2nc(-c2ccc(F)cc2)n3C(C)C)ccc1-c1ccnc(C)c1 [Compound 130],–
6310 nM,123 nM,–,–,Cc1cc(-c2ccc(Nc3nc(C)cc4c3nc(-c3ccc(F)cc3)n4C)cc2)ccn1 [Compound 132],–
> 10000 nM,45 nM,–,–,COc1cc(Nc2cccn3c(C)c(-c4ccccc4Cl)nc23)ccc1-c1ccnc(C)c1 [Compound 201],–
~6760 nM,17 nM,–,–,COc1nc(Nc2cccn3c(C)c(-c4ccccc4Cl)nc23)ccc1-c1ccnc(C)c1 [Compound 194],–
–,–,2040 nM,> 3000 nM,Cc1ncoc1-c1ccc(Nc2cccn3cc(C4CCOCC4)nc23)cn1 [Compound 154],–
–,–,41 nM,> 3000 nM,Cc1ncc(-c2ccc(Nc3cc(F)cn4cc(-c5ccc(F)cc5C)nc34)cc2)o1 [Compound 176],–
–,–,741 nM,> 3000 nM,Cc1ncc(-c2ccc(Nc3cccn4cc(C5CC5)nc34)cc2)o1 [Compound 166],–

# Second part, the molecule before the results:
SMILES,IC50 (Aβtotal [1]),IC50 (Aβ42 [2]),IC50 (Aβ42 [3]; [5]),IC50 (Aβtotal [4]; [5]),also measured
COCc1ncc(-c2ccc(Nc3cccc4c3nc(-c3ccc(F)cc3)n4C(C)C)cc2)o1 [Compound 84],> 10000 nM,112 nM,–,–,–
COc1nc(Nc2cccc3c2nc(-c2ccc(F)cc2)n3C(C)C)ccc1-c1cnn(C)c1 [Compound 69],> 10000 nM,22 nM,–,–,–
COc1cc(Nc2cccc3c2nc(-c2ccc(F)cc2)n3C)ccc1-c1cnn(C)n1 [Compound 73],5620 nM,141 nM,–,–,–
Cc1nc(C)c(-c2ccc(Nc3cccc4c3nc(-c3ccc(F)cc3)n4C(C)C)cc2)o1 [Compound 81],> 10000 nM,95 nM,–,–,–
COc1cc(Nc2cc(C(F)(F)F)cc3c2nc(CCC(F)(F)F)n3C)ccc1-c1ocnc1C [Compound 126],–,741 nM,214 nM,–,–
COc1cc(Nc2cccc3c2nc(-c2ccc(F)cc2)n3C(C)C)ccc1-c1oc(C)nc1C [Compound 80],> 10000 nM,49 nM,–,–,–
Cc1ccc(F)cc1-c1cn2nccc(Nc3ccc(-c4ocnc4C)nc3)c2n1 [Compound 197],–,–,–,–,IC50 (Aβtotal [1]; Homo sapiens): > 10000 nM; IC50 (Aβ42 [2]; Homo sapiens): 550 nM
COc1cc(Nc2nc(C)cc3c2nc(-c2ccc(F)cc2)n3C)ccc1-c1ccnc(C)c1 [Compound 127],3630 nM,44 nM,–,–,–
COc1cc(Nc2nc(C)cc3c2nc(-c2ccccc2Cl)n3C)ccc1-c1ocnc1C [Compound 113],4900 nM,66 nM,–,–,–
COc1cc(Nc2cccc3c2nc(-c2ccc(F)cc2)n3C(C)C)ccc1-c1ccnc(C)c1 [Compound 128],–,–,–,–,IC50 (Aβtotal [1]; Homo sapiens): 9120 nM; IC50 (Aβ42 [2]; Homo sapiens): 39 nM
Cc1ncoc1-c1ccc(Nc2cccc3c2nc(-c2ccc(Cl)s2)n3C(C)C)cn1 [Compound 116],> 10000 nM,72 nM,–,–,–
COc1cc(Nc2cc(C(C)=O)cn3cc(CC(C)C)nc23)ccc1-c1ocnc1C [Compound 156],–,–,–,–,IC50 (Aβtotal [1]; Homo sapiens): 8910 nM; IC50 (Aβ42 [2]; Homo sapiens): 42 nM
Cc1ncoc1-c1ccc(Nc2cccc3c2nc(COc2ccccc2)n3C)cn1 [Compound 61],–,–,1070 nM,> 3000 nM,–
COc1cc(-c2nc3c(Nc4ccc(-c5cnc(C)o5)c(OC)c4)cccc3n2C)ccc1Cl [Compound 62],–,–,9 nM,> 3000 nM,–
COc1cc(Nc2nccc3c2nc(-c2ccc(F)cc2)n3C(C)C)ccc1-c1cnc(C)o1 [Compound 27],–,–,676 nM,> 3000 nM,–
COCCn1c(C)nc2c(Nc3ccc(-c4cnc(C)s4)c(OC)c3)cccc21 [Compound 37],–,–,380 nM,> 3000 nM,–
Cc1ncc(-c2ccc(Nc3cccc4c3nc(-c3ccc(F)cc3)n4C(C)C)cc2F)o1 [Compound 28],–,–,110 nM,> 3000 nM,–
Cc1ncc(-c2ccc(Nc3cccn4cc(-c5ccccc5C)nc34)cc2)o1 [Compound 39],–,–,51 nM,> 3000 nM,IC50 (Aβ42 [3]; [6]): 53 nM; IC50 (Aβtotal [4]; [6]): > 3000 nM
Cc1ncc(-c2ccc(Nc3cccc4c3nc(-c3ccc(F)cc3)n4C(C)C)cc2)o1 [Compound 19],–,–,28 nM,> 3000 nM,IC50 (Aβ42 [3]; [6]): 49 nM; IC50 (Aβtotal [4]; [6]): > 3000 nM
COCCCc1c(-c2ccccc2C(F)(F)F)nc2c(Nc3ccc(-c4cnc(C)o4)c(OC)c3)cccn12 [Compound 169],–,–,–,–,IC50 (Aβ42 [3]; [7]): 45 nM; IC50 (Aβtotal [4]; [7]): > 3000 nM
COc1cccc(-c2nc3c(Nc4ccc(-c5ocnc5C)c(OC)c4)nc(C)cc3n2C)c1 [Compound 121],–,–,20 nM,> 3000 nM,–
COc1cc(Nc2cccn3cc(-c4ccccc4C)nc23)ccc1-c1cnc(C)s1 [Compound 52],–,–,166 nM,> 3000 nM,–
Cc1ncoc1-c1ccc(Nc2cc(C#N)cc3c2nc(-c2ccc(F)cc2)n3C)cn1 [Compound 110],–,–,83 nM,> 3000 nM,–
